One data set deals with B16-F10 murine melanoma. Briefly: MTT cell-viability assay, B16-F10. The conditions noted are these: Mus musculus, 72 h, untreated control cells as 100% viability. The format is cell-based. The protocol: (§1) The cytotoxic effects of 12 NBD-Aa-triterpene conjugates (1–12) were tested on three different cancer cell lines as a representation of cancers from different tissues and organs (B16-F10 murine melanoma, HT-29 human colon adenocarcinoma, and HepG2 human hepatocyte carcinoma). Cell viability was determined by MTT colorimetric analysis, with increasing concentration levels of each compound (0–200 μg/mL) and incubation for 72 h. The MTT assay was based on the metabolic reduction of 3-(4,5-dimethylthiazol-2-yl)-2,5-diphenyltetrazolium bromide (MTT) to a violet-colored compound (formazan), with a maximum absorbance at 570 nm. Cell viability was proportional to the amount of formazan and was expressed as the percentage of viable treated cells relative to untreated control cells. The concentration at which the derivatives halved the number of viable cells in the three cancer lines (IC50) was determined. […] These NBD conjugates of BO or BM also had higher IC50 values than their precursors (BO or BM), even in NBD conjugates with the shortest-chain ω-amino acid linker (6AHA) (Table 2). Due to these high IC50 values, all of these NBD-conjugated compounds were discarded for further cytometric studies.
(§2) The effect of the synthesized compounds on the viability of tumor cells was assessed using the MTT assay, based on the ability of living cells to metabolically reduce 3-(4,5-dimethylthiazole)-2,5-diphenyltetrazole bromide, rendering formazan, a colored compound with a maximum absorbance of 570 nm. To study the cytotoxic effects of the compounds in the three cancer cell lines, the different lines were seeded in 96-well plates at a cell density per well of 5 × 10^3 for B16-F10, 6 × 10^3 for HT-29, and 15 × 10^3 for HepG2. After seeding, the plates were grown for 24 h and subsequently treated in triplicate with different compounds at different concentrations (0–200 μg/mL) for 72 h. After this time, the cells were stained by adding 100 mL of MTT (0.5 mg/mL) per well and incubated for 1 h. Subsequently, the cells were washed with phosphate-buffered saline (PBS), and formazan was resuspended in 100 μL of DMSO per well. Cell viability was measured by absorbance at 550 nm in an ELISA plate reader (Tecan Sunrise MR20–301, TECAN, Austria).
(§3) For this, Sigmaplot 12.5 software was used, and all quantitative data were expressed as means ± standard deviation (SD). All data shown are representative of at least two independent experiments performed in triplicate.
(Tetrazolium dyes change colour on reduction, which living cells bring about.)

The subject of data set [1] is HT-29 human colon adenocarcinoma. Briefly: MTT cell-viability assay, HT-29. The following applies: 72 h, untreated control cells as 100% viability. The class given is cell-based. The protocol: as §1, §2, §3
Data set [2] relates to HepG2 human hepatocyte carcinoma. The experiment in a line: MTT cell-viability assay, HepG2. The format is cell-based. The following applies: 72 h, untreated control cells as 100% viability. As for the experimental part:
as §1, §2, §3

Data set [3] concerns HPF human pulmonary fibroblasts. Briefly: MTT cytotoxicity on nontumor cells, HPF. The class given is cell-based. As for the experimental part: (§4) Due to their greater cytotoxic activity, NBD conjugates 1 and 2 were selected to analyze their cytotoxic effects on healthy cells, using nontumor cell lines (HPF human pulmonary fibroblasts, IEC-18 epithelial rat ileum cells, and WRL68 human embryonic hepatic cells) (Table 3). The selectivity indices (SI) of the NBD-Aa-triterpene conjugates 1 and 2 were calculated with the formula: IC50 nontumor cells/IC50 cancer cells. Additionally, cell-viability percentages in the nontumor cells were measured, which ranged in most cases between 75 and 90%.
as §2, §3

The test system of data set [4] is IEC-18 epithelial rat ileum cells. Briefly: MTT cytotoxicity on nontumor cells, IEC-18. The format is cell-based. As for the experimental part: as §4, §2, §3
The subject of data set [5] is WRL68 human embryonic hepatic cells. The experiment in a line: MTT cytotoxicity on nontumor cells, WRL68. The class given is cell-based. As for the experimental part: as §4, §2, §3
Another data set concerns B16-F10 cells. Briefly: Annexin V/propidium iodide flow cytometry of cell death, B16-F10. The class given is cell-based, mouse. The conditions noted are these: B16-F10, at IC50 concentration, after 72 h. As for the experimental part: (§5) NBD-6AHA-triterpene conjugates 1 and 2 were selected for the characterization of their cytotoxic effects on the three cancer cell lines used. The percentages of cell death were determined using the concentrations corresponding to the IC50 values for each compound in the three cancer cell lines (B16-F10, HT-29, and HepG2). This study was conducted by flow cytometry, using double staining with DY634 annexin V/propidium iodide, which allows the identification and quantification of intact, apoptotic, or necrotic cells. Annexin DY634 (red fluorescence) is an apoptotic marker due to its ability to bind to phosphatidylserine exposed on the external cell surface. Propidium iodide (orange fluorescence) is a DNA marker that is capable of penetrating only when the cell is damaged, differentiating late apoptotic or necrotic cells from apoptotic ones. These conjugates (1 and 2) are green fluorescent probes, not causing interference in the fluorescence.
(§6) The apoptosis studies were conducted at 4, 24, and 72 h (Figure 5).
(§7) Cell death (apoptosis) was studied by flow cytometry using a FACScan (fluorescence-activated cell sorter) flow cytometer (Coulter Corporation, Hialeah, FL). […] In each experiment, approximately 10 × 10^3 cells were analyzed, and the experiment was duplicated twice.
(A flow cytometer gives signals particle by particle.)

A further data set has as its system HT-29 cells. The experiment in a line: Annexin V/propidium iodide flow cytometry of cell death, HT-29. The format is cell-based, human. The following applies: HT-29, at IC50 concentration, after 72 h. As for the experimental part:
as §5, §6, §7

The next data set has as its system HepG2 cells. Briefly: Annexin V/propidium iodide flow cytometry of cell death, HepG2. The class given is cell-based, human. The conditions noted are these: HepG2, at IC50 concentration, after 72 h. The protocol: as §5, §6, §7
Data set [6] can be described thus: Cell-viability percentages in nontumor cells, summary. The format is cell-based. The conditions noted are these: human, rat; in most cases. As for the experimental part:
as §4
as §2, with “After this time, the cells were stained by adding 100 mL of MTT (0.5 mg/mL) per well and incubated for 1 h. Subsequently, the cells were washed with phosphate-buffered saline (PBS), and formazan was resuspended in 100 μL of DMSO per well.” left out

The nature of data set [7]: Absorption and fluorescence spectroscopy (photophysical data). The format is physicochemical. The following applies: DMSO, 25 °C.
Details of data set [8]: method as in PMID 26512635. The following applies: ethanol solution ref 45; cited from earlier work.

Broadly, the IC50 is the point on the concentration scale where inhibition reaches its midpoint. As usually defined, the viability is a per cent measure of how many cells are alive, often set against a control. Low readings indicate a greater loss of cells, high ones better survival. On to `CC1(C)CC[C@]2(C(=O)O)CC[C@]3(C)C(=CC[C@@H]4[C@@]5(C)C[C@@H](OC(=O)CCCCCNc6ccc([N+](=O)[O-])c7nonc67)[C@H](O)C(C)(C)[C@@H]5CC[C@]43C)[C@@H]2C1` [Compound 2, 3β-Hydroxy-2α-((6-((7-nitrobenzo[c][1,2,5]oxadiazol-4-yl)amino)hexanoyl)oxy)olean-12-en-28-oic Acid], for which the 50% inhibitory concentration (IC50) in the data set on B16-F10 murine melanoma worked out at 4.9 ± 0.4 µM; in data set [1], 6.6 ± 0.1 µM; in data set [2], 13.9 ± 0.6 µM; in [3] (Homo sapiens, Pulmonary fibroblast, MTT assay, nontumor cells) it was 14.8 ± 1.5 µM; in [4] (Rattus norvegicus, IEC-18, MTT assay, nontumor cells) it was 14.7 ± 0.7 µM; in data set [5] (Homo sapiens, WRL68, MTT assay, nontumor cells), 10 ± 0.3 µM. For the same compound, in data set [3] (column beside HPF), the “SI (selectivity index, IC50 nontumor cells/IC50 cancer cells), HPF” value is reported as 3. The “SI (selectivity index, IC50 nontumor cells/IC50 cancer cells), IEC-18” value in data set [4] (column beside IEC-18) worked out at 2. In addition, the “SI (selectivity index, IC50 nontumor cells/IC50 cancer cells), WRL68” value in data set [5] (column beside WRL68) is reported as 1. Besides, the percentage of apoptosis was 48% in the data set on B16-F10 cells, 55% with HT-29 cells and 53% in the data set with HepG2 cells. In data set [6], this compound returned a viability at 72 h of 75 to 90%. Further, the “(λabs)max” value in [7] was determined as 480 nm. Besides, the “ε (molar extinction coefficient)” value in data set [7] is 3166 M^–1 cm^–1. Further, in data set [7] (485 nm pulsed LED), the “τ (half-life time of fluorescence)” value worked out at 7.681 ns. Further, the “Φ (fluorescence quantum yield)” value in data set [7] (Coumarin 6 as standard) is listed as 0.71. In addition, the “(λem)max” value in [7] (excitation at 480 nm) is 546 nm.
`CCN(CC)c1ccc2cc(-c3nc4ccccc4s3)c(=O)oc2c1` [Coumarin 6]: the “ΦF of the standard sample” value in [8] is 0.78.

The values above are taken from PMC9887599, “Synthesis, Optical Properties, and Antiproliferative Evaluation of NBD-Triterpene Fluorescent Probes” (Journal of Natural Products, 2022).
